Values joined by “and” are separate entries in the source; they are usually repeats but may differ in a detail not shown here. Equal values may be shown once.
Target: H+,K+-ATPase (Sus scrofa, UniProt P19156)
Experiment: Dose-dependent inhibition of H+,K+-ATPase activity, membrane fractions
Details: for H+,K+-ATPase activity, raw data of dose-dependent inhibition: single replicate values
[1] = [PCAB] -3.30103 (log, unit not given)
[2] = [PCAB] -3.52288 (log, unit not given)
[3] = [PCAB] -4 (log, unit not given)
[4] = [PCAB] -4.30103 (log, unit not given)
[5] = [PCAB] -4.52288 (log, unit not given)
[6] = [PCAB] -5 (log, unit not given)
[7] = [PCAB] -5.52288 (log, unit not given)
[8] = [PCAB] -6 (log, unit not given)
[9] = [PCAB] -6.30103 (log, unit not given)
[10] = [PCAB] -7 (log, unit not given)
[11] = [PCAB] -8 (log, unit not given)
[12] = [PCAB] -11 (log, unit not given; possibly placeholder for no compound)

Chain of H+,K+-ATPase (P19156 2-1034 limits assumed): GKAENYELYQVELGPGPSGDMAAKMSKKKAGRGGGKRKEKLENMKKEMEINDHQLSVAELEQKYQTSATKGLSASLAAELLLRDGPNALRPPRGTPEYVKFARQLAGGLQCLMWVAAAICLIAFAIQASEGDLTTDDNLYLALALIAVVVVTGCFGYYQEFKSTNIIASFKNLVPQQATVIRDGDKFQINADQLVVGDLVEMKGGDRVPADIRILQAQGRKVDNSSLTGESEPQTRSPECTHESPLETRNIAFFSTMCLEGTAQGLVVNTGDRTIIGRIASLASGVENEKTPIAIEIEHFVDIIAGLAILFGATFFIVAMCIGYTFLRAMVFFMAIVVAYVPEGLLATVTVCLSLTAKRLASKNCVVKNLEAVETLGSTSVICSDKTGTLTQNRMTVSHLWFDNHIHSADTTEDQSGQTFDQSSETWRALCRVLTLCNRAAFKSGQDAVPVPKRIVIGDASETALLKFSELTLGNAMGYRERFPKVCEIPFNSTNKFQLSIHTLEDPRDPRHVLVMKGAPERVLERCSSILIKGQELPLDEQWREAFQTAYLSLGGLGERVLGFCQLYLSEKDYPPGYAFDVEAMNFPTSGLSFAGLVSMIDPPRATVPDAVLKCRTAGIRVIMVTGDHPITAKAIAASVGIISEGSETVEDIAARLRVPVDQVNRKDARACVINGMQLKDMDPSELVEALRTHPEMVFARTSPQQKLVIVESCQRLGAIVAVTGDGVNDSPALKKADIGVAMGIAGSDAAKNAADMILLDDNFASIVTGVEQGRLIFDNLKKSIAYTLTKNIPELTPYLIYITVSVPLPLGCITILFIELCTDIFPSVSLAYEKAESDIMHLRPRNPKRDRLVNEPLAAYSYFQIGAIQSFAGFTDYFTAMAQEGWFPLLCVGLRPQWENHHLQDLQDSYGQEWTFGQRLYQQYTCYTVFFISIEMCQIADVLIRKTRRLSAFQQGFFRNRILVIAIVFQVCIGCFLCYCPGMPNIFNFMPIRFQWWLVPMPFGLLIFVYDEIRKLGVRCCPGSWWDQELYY
Chain of H+,K+-ATPase (P18434 whole entry partner): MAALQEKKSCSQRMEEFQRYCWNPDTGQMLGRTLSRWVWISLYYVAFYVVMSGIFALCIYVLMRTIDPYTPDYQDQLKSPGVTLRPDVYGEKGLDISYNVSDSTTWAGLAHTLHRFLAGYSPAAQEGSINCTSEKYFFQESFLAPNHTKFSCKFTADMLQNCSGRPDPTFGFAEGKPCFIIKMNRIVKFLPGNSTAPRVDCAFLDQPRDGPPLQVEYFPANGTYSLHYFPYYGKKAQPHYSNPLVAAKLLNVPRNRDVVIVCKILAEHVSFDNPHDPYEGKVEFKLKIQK

| SMILES | IC50 | H+,K+-ATPase activity, raw data of dose-dependent inhibition [1] | H+,K+-ATPase activity, raw data of dose-dependent inhibition [2] | H+,K+-ATPase activity, raw data of dose-dependent inhibition [3] | H+,K+-ATPase activity, raw data of dose-dependent inhibition [4] | H+,K+-ATPase activity, raw data of dose-dependent inhibition [5] | H+,K+-ATPase activity, raw data of dose-dependent inhibition [6] | H+,K+-ATPase activity, raw data of dose-dependent inhibition [7] | H+,K+-ATPase activity, raw data of dose-dependent inhibition [8] | H+,K+-ATPase activity, raw data of dose-dependent inhibition [9] | H+,K+-ATPase activity, raw data of dose-dependent inhibition [10] | H+,K+-ATPase activity, raw data of dose-dependent inhibition [11] | H+,K+-ATPase activity, raw data of dose-dependent inhibition [12] | further results |
| --- | --- | --- | --- | --- | --- | --- | --- | --- | --- | --- | --- | --- | --- | --- |
| NCc1ccc(OCc2ccccc2OCc2ccccc2)cc1 [DQ-12] | 1.54 ± 0.07 µM | -2.13 and -5.12 and -1.35 and 1.97 and -1.31 and 0.69 | -0.8 and -0.12 and -1.95 (2×) and -1.32 and -0.19 | 0.73 and 0 and -0.35 and -0.11 and -0.2 and 0.01 | 3.34 and 3.14 and -0.81 and -0.94 and -0.85 and -0.15 | 5.83 and 5.43 and 5.22 and 6.02 and 6.1 and 5.29 | 14.6 and 14.36 and 13.48 and 12.93 and 13.73 and 12.81 | 35.47 and 34.66 and 35.13 and 34.7 and 33.05 and 34.53 | 63.22 and 63.5 and 59.87 and 57.62 and 57.1 and 58.43 | 74.96 and 75.04 and 76.55 and 75.62 and 74.4 and 76.41 | 91.01 and 87.51 and 98.57 and 99.1 and 95.69 and 97.51 | 96.05 and 93.52 and 100.03 and 97.19 and 98.53 and 98.62 | 97.64 and 96.4 and 100.03 and 99.55 and 98.47 and 102.15 |  |
| CNCC#CCn1ccnc1NC(=O)c1ccccc1 [DQ-09] | > 2000 µM |  |  |  |  |  |  |  |  |  |  |  | 99.26 and 98.65 and 101.5 and 98.45 and 98.97 and 101.13 | H+,K+-ATPase activity, raw data of dose-dependent inhibition ([PCAB] -3.455 (log, unit not given)): 63.11 and 66.04 and 91.33 and 94.1 and 93.4 and 93.07; H+,K+-ATPase activity, raw data of dose-dependent inhibition ([PCAB] -3.67685 (log, unit not given)): 81.52 and 80.18 and 94.54 and 95.44 and 96.5 and 95.18; H+,K+-ATPase activity, raw data of dose-dependent inhibition ([PCAB] -4.15397 (log, unit not given)): 92.95 and 94.76 and 92.15 and 93.44 and 92.03 and 93.77; H+,K+-ATPase activity, raw data of dose-dependent inhibition ([PCAB] -4.455 (log, unit not given)): 99 and 99.88 and 97.42 and 97.61 and 95.39 and 91.33; H+,K+-ATPase activity, raw data of dose-dependent inhibition ([PCAB] -4.67685 (log, unit not given)): 97.65 and 97.31 and 107.67 and 103.09 and 98.87 and 105.02; H+,K+-ATPase activity, raw data of dose-dependent inhibition ([PCAB] -5.15397 (log, unit not given)): 99.93 and 96.29 and 97.51 and 98.34 and 88.34 and 93.86; H+,K+-ATPase activity, raw data of dose-dependent inhibition ([PCAB] -5.67685 (log, unit not given)): 101.49 and 99.52 and 93.88 and 106.02 and 103.98 and 106.05; H+,K+-ATPase activity, raw data of dose-dependent inhibition ([PCAB] -6.15397 (log, unit not given)): 99.11 and 99.53 and 98.71 and 99.47 and 95.43 and 99.9; H+,K+-ATPase activity, raw data of dose-dependent inhibition ([PCAB] -7.00046 (log, unit not given)): 100.13 and 101.44 and 98.87 and 102.62 and 97 and 100.92; H+,K+-ATPase activity, raw data of dose-dependent inhibition ([PCAB] -7.15397 (log, unit not given)): 100.4 and 99.7 and 97.72 and 99.58 and 95.86 and 98.79; H+,K+-ATPase activity, raw data of dose-dependent inhibition ([PCAB] -8.15397 (log, unit not given)): 99.08 and 99.65 and 97.54 and 97.72 and 99.14 and 96.06 |
| CNCc1ccc(OCc2cc(Cl)ccc2OCc2ccc(Cl)cc2)c(Cl)c1 [DQ-07] | 3.2 ± 0.2 µM | 0.27 and 0.6 and 3.27 and 8.56 and 2.84 and 6.16 | -0.35 and -0.17 and 2.58 and 2.95 and 2.71 and 3.29 | -1.84 and -1.63 and 1.31 and 1.18 and 1.05 and 1.62 | -1.84 and -1.6 and 2.69 and 2.52 and 2.83 and 2.8 | -1.24 and -1.47 and 3.31 and 3.19 and 3.75 and 3.57 | 4.55 and 4.67 and 12.66 and 12.06 and 13.24 and 12.08 | 45.69 and 44.11 and 51.61 and 59.03 and 63.14 and 61.87 | 84.95 (2×) and 82.82 and 90.61 and 90.08 and 95.69 | 90.87 and 90.7 and 95.03 and 96.7 and 92.33 and 94.31 | 96.69 and 96.52 and 102.14 and 98.38 and 97.9 and 99.91 | 96.57 and 99.63 and 102.72 and 99.81 and 97.87 and 101.66 | 100.45 and 97.72 and 103.9 and 100.73 and 98.44 and 100.87 |  |

From article PMC10509173, “Deep learning driven de novo drug design based on gastric proton pump structures” (Communications Biology, 2023)
